Data set [1] has as its system Mycobacterium tuberculosis. Put plainly: Antitubercular activity against Mycobacterium tuberculosis RCMB 010126 clinical isolate after 4 days by microplate alamar blue assay. The data set is classed as functional. A general note: Resazurin is reduced to fluorescent resorufin, in cell work by metabolically active cells.
For data set [2], the system named is Staphylococcus aureus. As to the kind of experiment: Antibacterial activity against Staphylococcus aureus RCMB 010028 assessed as diameter of zone inhibition after 24 hrs by agar well diffusion assay. In kind it is functional. A general note: A growth-free zone around the sample is the usual read-out of agar diffusion tests.
Data set [3] concerns Staphylococcus aureus. As to the kind of experiment: Antibacterial activity against Staphylococcus aureus RCMB 010028 after 24 hrs by serial dilution method. To be noted: RCMB 010028, 24 h. The data set is classed as functional.
Data set [4] deals with Pseudomonas aeruginosa. Put plainly: Antibacterial activity against Pseudomonas aeruginosa RCMB 010043 assessed as diameter of zone inhibition after 24 hrs by agar well diffusion assay. The data set is classed as functional.
The subject of data set [5] is Escherichia coli. Put plainly: Antibacterial activity against Escherichia coli RCMB 010052 assessed as diameter of zone inhibition after 24 hrs by agar well diffusion assay. In kind it is functional.
The subject of data set [6] is Pseudomonas aeruginosa. Put plainly: Antibacterial activity against Pseudomonas aeruginosa RCMB 010043 after 24 hrs by serial dilution method. In kind it is functional. The settings on record: RCMB 010043, 24 h.
Data set [7] deals with Escherichia coli. As to the kind of experiment: Antibacterial activity against Escherichia coli RCMB 010052 after 24 hrs by serial dilution method. The data set is classed as functional. To be noted: RCMB 010052, 24 h.
The test system of data set [8] is Aspergillus fumigatus. As to the kind of experiment: Antifungal activity against Aspergillus fumigatus RCMB 02568 after 24 hrs by serial dilution method. The data set is classed as functional. To be noted: RCMB 02568, 24 h.
Data set [9] relates to Aspergillus fumigatus. Put plainly: Antifungal activity against Aspergillus fumigatus RCMB 02568 assessed as diameter of zone inhibition after 48 hrs by agar well diffusion assay. In kind it is functional.
In data set [10] the test system is Candida albicans. Put plainly: Antifungal activity against Candida albicans RCMB 05036 assessed as diameter of zone inhibition after 48 hrs by agar well diffusion assay. In kind it is functional.
Data set [11] deals with Candida albicans. Put plainly: Antifungal activity against Candida albicans RCMB 05036 after 24 hrs by serial dilution method. In kind it is functional. To be noted: RCMB 05036, 24 h.
A further data set deals with Mycolicibacterium aurum. As to the kind of experiment: Antitubercular activity against Mycobacterium aurum infected in mouse RAW264.7 cells measured after 48 hrs. In kind it is functional.
The nature of data set [12]: Cytotoxicity against mouse RAW264.7 cells. In kind it is cell-based.
Data set [13] can be described thus: Selectivity index, ratio of GI50 for mouse RAW264.7 cells to MIC for Mycobacterium aurum infected in mouse RAW264.7 cells. In kind it is toxicity, cell-based. To be noted: read-out: Selectivity Index.
The subject of data set [14] is Staphylococcus aureus. As to the kind of experiment: Antibacterial activity against methicillin-resistant Staphylococcus aureus ATCC 33592 after 24 hrs by serial dilution method. In kind it is functional. The settings on record: ATCC 33592, 24 h.
A further data set concerns Enterococcus faecium. As to the kind of experiment: Antibacterial activity against vancomycin-resistant Enterococcus faecium ATCC 700221 after 24 hrs by serial dilution method. The data set is classed as functional. The settings on record: ATCC 700221, 24 h.
For the next data set, the system named is WI-38. Put plainly: Cytotoxicity against human WI38 cells by MTT assay. In kind it is cell-based. For orientation: Tetrazolium dyes change colour on reduction, which living cells bring about.
Data set [15] can be described thus: Selectivity index, ratio of IC50 for human WI38 cells to MIC for Mycobacterium tuberculosis RCMB 010126 clinical isolate. In kind it is toxicity. To be noted: read-out: Selectivity Index.
Data set [16] relates to Mycobacterium tuberculosis. As to the kind of experiment: Potency index, ratio of isoniazid MIC to compound MIC for antitubercular activity against Mycobacterium tuberculosis RCMB 010126 clinical isolate. The data set is classed as functional.
Data set [17] deals with Aspergillus fumigatus. As to the kind of experiment: Potency index, ratio of amphotericin B MIC to compound MIC for antifungal activity against Aspergillus fumigatus RCMB 02568. The data set is classed as functional.
For data set [18], the system named is Staphylococcus aureus. As to the kind of experiment: Potency index, ratio of ciprofloxacin MIC to compound MIC for Staphylococcus aureus RCMB 010028. In kind it is functional.
Data set [19] has as its system Pseudomonas aeruginosa. Put plainly: Potency index, ratio of ciprofloxacin MIC to compound MIC for Pseudomonas aeruginosa RCMB 010043. The data set is classed as functional.
The test system of data set [20] is Escherichia coli. Put plainly: Potency index, ratio of ciprofloxacin MIC to compound MIC for Escherichia coli RCMB 010052. The data set is classed as functional.
The test system of data set [21] is Aspergillus fumigatus. Put plainly: Potency index, ratio of amphotericin B MIC to compound MIC for Aspergillus fumigatus RCMB 02568. The data set is classed as functional.
Data set [22] can be described thus: Stability in mouse RAW264.7 cells measured after 48 hrs. The data set is classed as ADME, cell-based. The settings on record: raw264.7, 48 h.
In data set [23] the test system is Mycobacterium tuberculosis. Put plainly: Antitubercular activity against Mycobacterium tuberculosis RCMB 010126 after 7 days by microplate alamar blue assay. In kind it is functional. The settings on record: RCMB 010126, 168 h.
Data set [24] is described as follows: Selectivity index, ratio of IC50 for human WI38 cells to MIC for Mycobacterium tuberculosis RCMB 010126. The data set is classed as toxicity. To be noted: read-out: Selectivity Index.

≈ marks a conversion by molar mass, not a printed value.

As a reminder, the MIC is the smallest concentration in the dilution series that meets the test's criterion for growth inhibition. A higher MIC goes with weaker potency. Usually GI50 stands for the concentration giving 50% growth inhibition. Low values mean more potent growth inhibition, high ones less potent growth inhibition. As usually defined, the IC50 is the concentration at which inhibition is half-maximal. A high value points to a need for much substance. As to `CC(=O)c1sc(/N=C2\NC(=O)/C(=C3/C(=O)N(C)c4ccccc43)S2)nc1C`, in [1], the “inhibition (INH)” value amounted to 76.35%. The MIC stood at 0.39 µg/mL (≈ 0.979 µM) in data set [1] (Mycobacterium tuberculosis, RCMB 010126, 96 h); 0.98 µg/mL (≈ 2.46 µM) in the data set on Staphylococcus aureus [3]; 0.98 µg/mL (≈ 2.46 µM) in the data set on Pseudomonas aeruginosa [6]; 0.49 µg/mL (≈ 1.23 µM) against Escherichia coli [7]; 0.98 µg/mL (≈ 2.46 µM) in the data set with Aspergillus fumigatus [8]; 0.49 µg/mL (≈ 1.23 µM) in the data set with Candida albicans [11]. Besides, the minimum inhibitory concentration (MIC) is 50 µg/mL (≈ 125 µM) in the data set with Mycolicibacterium aurum, 15.6 µg/mL (≈ 39.2 µM) with Staphylococcus aureus [14] and 62.5 µg/mL (≈ 157 µM) in the data set on Enterococcus faecium. For the same compound, the “diameter of the inhibition zone (DIZ)” value in the data set with Staphylococcus aureus [2] is 23.4 mm; with Pseudomonas aeruginosa [4] it was 23.2 mm; with Escherichia coli [5] it was 25.1 mm; in the data set with Aspergillus fumigatus [9], 23.2 mm; in the data set on Candida albicans [10], 25.1 mm. Besides, the GI50 in data set [12] is above 250 µg/mL. In addition, the selectivity ratio in data set [13] is above 5; in data set [15] it was 13. In addition, the IC50 with WI-38 amounted to 5.3 µg/mL (≈ 13.3 µM). The Ratio stood at 2 in data set [16]; 2 in the data set on Aspergillus fumigatus [17]; 2 in the data set on Staphylococcus aureus [18]; 4 with Pseudomonas aeruginosa [19]; 4 with Escherichia coli [20]; 2 in the data set on Aspergillus fumigatus [21]. In data set [22], the Stability entry is “Stable”.

In [23], `CCOC(=O)c1sc(/N=C2\NC(=O)/C(=C/c3cccnc3)S2)nc1C` yielded an MIC of 1.56 µg/mL (≈ 4.17 µM). Further, the selectivity ratio in data set [24] was determined as 52.1.

For the origin of these results see ChEMBL document CHEMBL4308854, “Novel indole-thiazolidinone conjugates: Design, synthesis and whole-cell phenotypic evaluation as a novel class of antimicrobial agents” (Eur J Med Chem, 2018).
